Experimental data taken from ChEMBL document CHEMBL5154675, “Design, Synthesis, and Biological Evaluation of 1-(Indolizin-3-yl)ethan-1-ones as CBP Bromodomain Inhibitors for the Treatment of Prostate Cancer” (J Med Chem, 2022).
Converted amounts (≈) assume the structure as drawn. The source made the active and inactive calls. The rule behind the calls is not given here.

Columns and labels:
[1] = AUC (0 to infinity) in Sprague-Dawley rat at 25 mg/kg, po measured up to 24 hrs; assay type: ADME, organism-based; set-up: time < 24 hrs, dose 25 mg/kg, route po; conditions: in vivo
LNCaP C4-2B [2] = assay: Antiproliferative activity against human LNCaP C4-2B cells assessed as inhibition of cell growth by Celltiter-Glo assay; assay type: functional, cell-based
[3] = AUC (0 to infinity) in Sprague-Dawley rat at 5 mg/kg, iv administered as single dose measured up to 24 hrs; assay type: ADME, organism-based; set-up: time < 24 hrs, dose 5 mg/kg, route iv; conditions: in vivo, 24 h
[4] = Clearance in Sprague-Dawley rat at 5 mg/kg, iv administered as single dose measured up to 24 hrs; assay type: ADME, organism-based; conditions: in vivo, iv, 5 mg/kg, 24 h
[5] = Oral bioavailability in Sprague-Dawley rat at 25 mg/kg measured up to 24 hrs; assay type: ADME, organism-based; conditions: in vivo
[6] = Metabolic stability in rat liver microsomes assessed as parent compound remaining at 1 uM incubated for 45 mins in presence of NADPH by LC-MS/MS analysis; assay type: ADME, Microsome; conditions: read-out: Stability
[7] = target: Bromodomain-containing protein 3 (Homo sapiens, UniProt Q15059); assay: Binding affinity to His6-tagged human BRD3 bromodomain-2 (306 to 416 residues) expressed in Escherichia coli BL21 (DE3) assessed as dissociation constant by ITC analysis
[8] = Metabolic stability in human liver microsomes assessed as parent compound remaining at 1 uM incubated for 45 mins in presence of NADPH by LC-MS/MS analysis; assay type: ADME, Microsome; conditions: read-out: Stability
[9] = Half life in rat liver microsomes at 1 uM incubated for 45 mins in presence of NADPH by LC-MS/MS analysis; assay type: ADME, Microsome
[10] = Half life in human liver microsomes at 1 uM incubated for 45 mins in presence of NADPH by LC-MS/MS analysis; assay type: ADME, Microsome
[11] = Intrinsic clearance in human liver microsomes at 1 uM incubated for 45 mins in presence of NADPH by LC-MS/MS analysis; assay type: ADME, Microsome; conditions: read-out: CLH
[12] = Hepatic extraction ratio in human liver microsomes at 1 uM incubated for 45 mins in presence of NADPH by LC-MS/MS analysis; assay type: ADME, Microsome; conditions: read-out: ERH
[13] = Efflux ratio of apparent permeability across basolateral to apical side over apical to basolateral side in human Caco-2 cells at 10 uM measured after 2 hrs by LC-MS/MS analysis; assay type: ADME, cell-based
[14] = Apparent permeability across basolateral to apical side in human Caco-2 cells assessed as drug recovery at 10 uM measured after 2 hrs by LC-MS/MS analysis; assay type: ADME, cell-based; conditions: read-out: Drug recovery
CWR22R [15] = assay: Antiproliferative activity against human 22Rv1 cells assessed as cell growth inhibition by Celltiter-Glo assay; assay type: functional, cell-based
CWR22R [16] = assay: Inhibition of colony formation in human 22Rv1 cells at 1 to 4 uM incubated for 14 days by crystal violet staining based assay; assay type: functional, cell-based; conditions: dose 1-4 µM, time 14.0 day
[17] = Aqueous solubility of compound in PBS buffer at pH 7.2 measured after 24 hrs by HPLC analysis; assay type: physicochemical
LNCaP C4-2B [18] = assay: Induction of apoptosis in human LNCaP C4-2B cells assessed as increase in apoptotic cells at 20 uM measured after 48 hrs by Annexin V-FITC and propidium iodide staining based flow cytometry (Rvb= 1%); assay type: functional
LNCaP C4-2B [19] = assay: Suppression of PSA gene expression in human LNCaP C4-2B cells transfected with renilla luciferase incubated for 24 hrs by dual luciferase reporter assay; assay type: functional, cell-based; conditions: dose 0.4-10 µM, DDE = dose-dependent effect
CWR22R [20] = assay: Suppression of PSA gene expression in human 22Rv1 cells incubated for 48 hrs by dual luciferase reporter assay; assay type: functional, cell-based; conditions: dose 0-20 µM, DDE = dose-dependent effect
CWR22R [21] = assay: Suppression of c-Myc protein expression in human 22Rv1 cells at 5 uM incubated for 48 hrs by Western blot analysis; assay type: functional, cell-based
LNCaP C4-2B [22] = assay: Suppression of Androgen receptor target-gene expression in human LNCaP C4-2B cells at 5 uM incubated for 48 hrs by SYBR green dye-based qRT-PCR analysis; assay type: functional, cell-based
CWR22R [23] = assay: Suppression of Androgen receptor target-gene expression in human 22Rv1 cells at 5 uM incubated for 48 hrs by SYBR green dye-based qRT-PCR analysis; assay type: functional, cell-based
LNCaP [24] = assay: Suppression of Androgen receptor target-gene expression in human LNCaP cells at 5 uM incubated for 48 hrs by SYBR green dye-based qRT-PCR analysis; assay type: functional, cell-based
LNCaP C4-2B [25] = assay: Suppression of c-Myc protein expression in human LNCaP C4-2B cells at 5 uM incubated for 48 hrs by Western blot analysis; assay type: functional, cell-based
LNCaP [26] = assay: Suppression of c-Myc protein expression in human LNCaP cells at 5 uM incubated for 48 hrs by Western blot analysis; assay type: functional, cell-based
[27] = Toxicity in NOD SCID mouse xenografted with human 22Rv1 cells assessed as mortality at 40 mg/kg, ip administered once daily for 21 days; assay type: organism-based, CWR22R; conditions: in vivo, 504 h, time 21 day
[28] = target: PH-interacting protein (Homo sapiens) (UniProt Q8WWQ0); conditions: dose 200.0 µM, time 30.0 min
[29] = target: Bromodomain adjacent to zinc finger domain protein 2B (Homo sapiens) (UniProt Q9UIF8); conditions: dose 200.0 µM, time 30.0 min
[30] = target: Bromodomain-containing protein 4 (Homo sapiens, UniProt O60885); conditions: dose 200.0 µM, time 30.0 min
[31] = target: T1, Bromodomain testis-specific protein (Homo sapiens, UniProt Q58F21); conditions: dose 200.0 µM, time 30.0 min
[32] = target: T1, Bromodomain testis-specific protein; conditions: dose 200.0 µM, time 30.0 min; remark: listed apart in the source
[33] = target: T2, Bromodomain-containing protein 9 (Homo sapiens) (UniProt Q9H8M2); conditions: dose 200.0 µM, time 30.0 min
T2 sequence (whole entry): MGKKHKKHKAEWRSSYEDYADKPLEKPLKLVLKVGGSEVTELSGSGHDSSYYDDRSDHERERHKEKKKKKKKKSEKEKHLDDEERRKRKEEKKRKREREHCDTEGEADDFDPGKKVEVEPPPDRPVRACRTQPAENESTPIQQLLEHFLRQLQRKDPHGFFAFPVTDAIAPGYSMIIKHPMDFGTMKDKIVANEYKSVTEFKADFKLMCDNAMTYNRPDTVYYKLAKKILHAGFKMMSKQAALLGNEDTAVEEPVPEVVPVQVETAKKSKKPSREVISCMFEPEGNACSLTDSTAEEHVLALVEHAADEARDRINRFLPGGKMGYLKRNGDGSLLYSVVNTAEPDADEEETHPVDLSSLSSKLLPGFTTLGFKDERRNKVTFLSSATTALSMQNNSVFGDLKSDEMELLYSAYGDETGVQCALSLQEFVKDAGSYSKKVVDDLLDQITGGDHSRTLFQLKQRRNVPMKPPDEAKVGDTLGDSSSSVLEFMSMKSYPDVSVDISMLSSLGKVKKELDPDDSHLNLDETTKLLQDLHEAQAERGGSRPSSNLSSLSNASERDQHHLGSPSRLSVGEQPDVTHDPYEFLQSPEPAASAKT

Bromodomain adjacent to zinc finger domain protein 2B (Homo sapiens), sequence (Q9UIF8 whole entry, the tested form may be a part): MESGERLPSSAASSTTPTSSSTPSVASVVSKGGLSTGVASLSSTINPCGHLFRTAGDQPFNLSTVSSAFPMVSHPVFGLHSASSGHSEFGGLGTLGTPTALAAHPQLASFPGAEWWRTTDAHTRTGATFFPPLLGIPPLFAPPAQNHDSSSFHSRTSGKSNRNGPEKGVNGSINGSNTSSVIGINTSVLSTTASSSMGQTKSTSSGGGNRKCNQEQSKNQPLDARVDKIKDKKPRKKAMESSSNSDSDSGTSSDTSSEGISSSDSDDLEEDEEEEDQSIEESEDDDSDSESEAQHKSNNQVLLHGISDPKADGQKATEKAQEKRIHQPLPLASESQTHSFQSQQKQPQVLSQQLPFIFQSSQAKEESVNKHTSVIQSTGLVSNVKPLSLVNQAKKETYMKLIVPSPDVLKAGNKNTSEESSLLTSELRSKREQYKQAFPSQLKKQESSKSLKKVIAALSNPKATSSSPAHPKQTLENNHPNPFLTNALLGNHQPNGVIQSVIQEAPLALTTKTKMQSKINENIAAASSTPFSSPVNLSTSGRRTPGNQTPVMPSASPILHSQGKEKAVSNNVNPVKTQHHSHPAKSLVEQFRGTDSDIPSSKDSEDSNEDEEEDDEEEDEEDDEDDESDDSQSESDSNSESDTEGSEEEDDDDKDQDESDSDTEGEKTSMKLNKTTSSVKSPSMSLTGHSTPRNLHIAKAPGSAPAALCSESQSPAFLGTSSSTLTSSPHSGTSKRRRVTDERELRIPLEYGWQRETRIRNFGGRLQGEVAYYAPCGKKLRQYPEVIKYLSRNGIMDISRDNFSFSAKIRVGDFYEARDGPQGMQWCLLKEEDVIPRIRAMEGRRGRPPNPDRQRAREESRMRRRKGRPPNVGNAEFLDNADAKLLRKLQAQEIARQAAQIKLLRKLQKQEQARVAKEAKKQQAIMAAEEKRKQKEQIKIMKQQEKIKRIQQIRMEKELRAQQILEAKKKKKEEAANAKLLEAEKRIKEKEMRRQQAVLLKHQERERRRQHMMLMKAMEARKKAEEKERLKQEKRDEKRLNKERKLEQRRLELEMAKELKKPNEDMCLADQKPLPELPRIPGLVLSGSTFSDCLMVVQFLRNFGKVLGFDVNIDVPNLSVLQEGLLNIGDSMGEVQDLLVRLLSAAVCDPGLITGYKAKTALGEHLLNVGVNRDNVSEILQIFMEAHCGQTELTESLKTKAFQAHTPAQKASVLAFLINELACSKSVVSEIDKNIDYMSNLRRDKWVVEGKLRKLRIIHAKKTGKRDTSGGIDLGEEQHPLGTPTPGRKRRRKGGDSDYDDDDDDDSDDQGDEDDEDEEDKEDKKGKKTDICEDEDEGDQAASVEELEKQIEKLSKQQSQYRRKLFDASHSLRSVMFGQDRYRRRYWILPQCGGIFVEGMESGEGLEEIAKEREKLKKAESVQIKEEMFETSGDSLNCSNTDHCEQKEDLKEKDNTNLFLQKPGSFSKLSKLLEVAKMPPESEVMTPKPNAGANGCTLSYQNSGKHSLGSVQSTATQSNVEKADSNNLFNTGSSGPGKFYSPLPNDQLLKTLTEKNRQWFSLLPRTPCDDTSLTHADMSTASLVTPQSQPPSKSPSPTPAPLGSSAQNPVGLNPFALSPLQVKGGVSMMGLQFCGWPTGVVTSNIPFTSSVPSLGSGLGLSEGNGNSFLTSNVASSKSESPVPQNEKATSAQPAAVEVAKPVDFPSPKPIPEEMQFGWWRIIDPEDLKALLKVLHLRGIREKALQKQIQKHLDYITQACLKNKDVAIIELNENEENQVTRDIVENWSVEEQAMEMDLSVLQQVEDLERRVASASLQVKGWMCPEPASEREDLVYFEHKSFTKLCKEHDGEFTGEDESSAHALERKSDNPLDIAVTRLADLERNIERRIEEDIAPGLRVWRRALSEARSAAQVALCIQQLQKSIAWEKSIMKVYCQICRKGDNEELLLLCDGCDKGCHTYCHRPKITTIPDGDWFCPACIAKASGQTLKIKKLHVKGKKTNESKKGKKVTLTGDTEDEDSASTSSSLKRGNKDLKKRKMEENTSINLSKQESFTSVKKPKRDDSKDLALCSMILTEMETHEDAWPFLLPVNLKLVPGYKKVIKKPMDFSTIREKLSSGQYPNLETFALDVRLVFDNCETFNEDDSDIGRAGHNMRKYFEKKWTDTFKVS
Bromodomain-containing protein 3, sequence (Q15059 whole entry, the tested form may be a part): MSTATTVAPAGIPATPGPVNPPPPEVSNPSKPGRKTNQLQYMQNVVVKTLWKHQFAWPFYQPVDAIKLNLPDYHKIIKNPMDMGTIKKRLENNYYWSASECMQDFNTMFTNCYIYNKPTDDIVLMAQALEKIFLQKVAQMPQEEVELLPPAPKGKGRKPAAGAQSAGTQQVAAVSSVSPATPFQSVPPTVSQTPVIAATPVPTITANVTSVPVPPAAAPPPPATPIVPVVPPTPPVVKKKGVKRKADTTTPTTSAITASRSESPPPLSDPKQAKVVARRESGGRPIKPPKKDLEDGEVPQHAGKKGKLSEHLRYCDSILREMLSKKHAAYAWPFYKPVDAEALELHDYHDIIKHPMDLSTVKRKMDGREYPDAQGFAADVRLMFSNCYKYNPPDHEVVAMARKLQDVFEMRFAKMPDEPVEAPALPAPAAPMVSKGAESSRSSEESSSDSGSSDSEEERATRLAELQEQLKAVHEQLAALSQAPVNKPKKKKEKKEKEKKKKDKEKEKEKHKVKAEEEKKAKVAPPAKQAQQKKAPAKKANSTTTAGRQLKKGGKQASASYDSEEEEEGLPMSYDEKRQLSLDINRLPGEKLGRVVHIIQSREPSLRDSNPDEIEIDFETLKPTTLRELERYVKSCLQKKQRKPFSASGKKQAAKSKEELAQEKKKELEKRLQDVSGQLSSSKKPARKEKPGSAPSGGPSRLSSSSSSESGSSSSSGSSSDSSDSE

COc1ccn2c(C(C)=O)cc(C(=O)Nc3cc(C(C)O)cc(-c4cnn(C5CC5)c4)c3F)c2c1 (stereo not drawn)
AUC(0-inf) [1]: 4820 ng·h/mL
IC50 (LNCaP C4-2B [2]): 6430 nM
AUC [3]: 3715.71 ng·h/mL
CL [4]: 2.33 mL/min/kg
bioavailability [5]: 25.9%
remaining at 0.75 h, 1 µM [6]: 50.7%
Kd [7]: 1500 nM
remaining at 0.75 h, 1 µM [8]: 23.1%
half-life at 1 µM [9]: 45.9 min
half-life at 1 µM [10]: 21.3 min
CLint scaled at 1 µM [11]: 81.9 mL/min/kg
hepatic extraction ratio at 0.75 h, 1 µM [12]: 0.798
efflux ratio at 2 h, 10 µM [13]: 1.77
recovery at 2 h, 10 µM [14]: 37.3%
IC50 (CWR22R [15]): 2040 nM
inhibition (CWR22R [16]): Active
solubility at 24 h [17]: 20 µg/mL (≈ 42 µM)
Activity (LNCaP C4-2B [18]): 13.08%
Activity (LNCaP C4-2B [19]): Dde
Activity (CWR22R [20]): Dde
Activity (CWR22R [21]): Active
Activity (LNCaP C4-2B [22]): Active
Activity (CWR22R [23]): Active
Activity (LNCaP [24]): Active
Activity (LNCaP C4-2B [25]): Active
Activity (LNCaP [26]): Active
Activity [27]: Non-Toxic
ΔTm [28]: 0 °C
ΔTm [29]: 0 °C
ΔTm [30]: -0.5 °C
ΔTm [31]: -3.3 °C
ΔTm [32]: -3 °C
ΔTm [33]: 5 °C
